# Measured values reported in the METLIN SMRT retention time set (Domingo-Almenara et al. 2019).
# Assay: gradient 5% acetonitrile 3 min, to 50% in 2 min, to 85% in 15 min, held 3 min, 100 µL/min
# Conditions: column: Zorbax Extend-C18 2.1 x 50 mm; eluents: water / acetonitrile, 0.1% formic acid
# Procedure, shortened: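 Using water and acetonitrile that each contained 0.1% formic acid, mixtures of ~100 pure standards were separated at 100 μL/min on a Zorbax Extend-C18 column (2.1 × 50 mm, 1.8 μm). The HPLC fed a quadrupole time-of-flight mass spectrometer working in positive and negative ionization mode, with dead and dwell volumes of 40 μL and 900 μL. Data were acquired over 3 months. Retention time was read from computationally picked adduct peaks after manual inspection of each.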
row,RP-LC retention time,Structure (SMILES)
1,673 s,COc1ccc2cc(C(=O)N3CCN(c4cc(=O)n(C)c(=O)n4C)CC3)[nH]c2c1
2,738 s,CCC(=O)Nc1ccc2c(c1)CN(C(=O)c1ccc(C)cc1)C(C(=O)N1CCCC1)C2 (stereo not given)
3,989 s,CCOC(=O)c1ccccc1NC(=O)Cn1nc2ccc(-c3ccc(Cl)cc3)nn2c1=O
4,1200 s,O=C1CC(c2noc(-c3ccc4c(c3)OCO4)n2)CN1c1ccc(F)cc1 (stereo not given)
5,630 s,COc1ccc(Cl)c2c(=O)c3c([nH]c12)CCN(CC(=O)NCc1ccc(C)cc1)C3
6,1000 s,CCOC(=O)c1ccccc1NC(=O)N1CCSc2nc(C)cc(C)c21
7,761 s,Cc1ccc(NC(=O)CN2C(=O)CCS(=O)(=O)c3ccccc32)cc1
8,1150 s,CCSc1nc2ccc(NS(=O)(=O)Cc3cc(C)ccc3C)cc2s1
9,1280 s,CCCCn1c(=O)c2ccccc2n(Cc2nc(-c3ccc(OC(F)(F)F)cc3)no2)c1=O
10,684 s,COc1ccc(-c2cc(C(=O)NCC(c3ccc(C)o3)N(C)C)no2)cc1 (stereo not given)
11,936 s,CCOC(=O)c1noc2ncnc(NCCc3ccccc3)c12
12,1200 s,CCOC(=O)c1cc(C2CC2)nc2c1c(=O)n(Cc1cccc(Cl)c1)c(=O)n2C
13,983 s,COc1ccc(N2CCN(c3cc(SCC(=O)Nc4c(C)cc(C)cc4C)ncn3)CC2)cc1
14,907 s,Cc1cc(C)n(-c2ccnc(N3CCC(C(=O)N4CCN(c5ccccc5)CC4)CC3)n2)n1
15,1150 s,COc1ccc(C)cc1NC(=O)N1c2ccccc2CC1c1nc(C2CC2)no1 (stereo not given)
16,950 s,Cc1cc(C)cc(Oc2nccn3c(=O)n(CC(=O)Nc4cc(F)ccc4F)nc23)c1
17,745 s,Cc1cc(Br)ccc1NC(=O)C1CCN(c2cc(=O)n(C)c(=O)n2C)CC1
18,889 s,COc1ccc(NC(=O)Cc2csc3nc(-c4cccc(Cl)c4)cn23)cc1
19,1200 s,CSc1ccc(-c2noc(Cn3ncn4nc(-c5ccccc5Cl)cc4c3=O)n2)cc1
20,836 s,O=C(Nc1ccc(OCC(=O)N2CCN(c3cccc(Cl)c3)CC2)nc1)C1CC1
21,640 s,Cc1nn(CC(=O)N2CCN(c3ccccn3)CC2)c(=O)c2c1sc1ccccc12
22,859 s,CCc1cccc(NC(=O)Cn2ncc3c(c2=O)N(CC2CC2)C(=O)CS3)c1
23,618 s,CCC(C)NC(=O)Cn1c(=O)c(=O)n(CC)c2ncccc21 (stereo not given)
24,626 s,COc1ccc(NC(=O)N2CCC(Cc3nc4cccnc4n3C(C)C)C2)c(OC)c1 (stereo not given)
25,571 s,CNC(=O)c1c2c(nc3ccc(F)cc13)CCCC2

# The next lines start with the compound.
row,Structure (SMILES),RP-LC retention time
1,Cc1oc(C2CCN(C(=O)Nc3ccccc3Cl)CC2)nc1C(=O)N(C)C,691 s
2,CC(=O)Nc1ccc(-c2noc(C3CCN(C(=O)CCc4c[nH]c5ccccc45)CC3)n2)cc1,786 s
3,CCOC(=O)c1c(C)c(CCC(=O)NC(C)c2ccc3c(c2)OCCO3)n(C)c1C (stereo not given),845 s
4,Cc1oc(-c2ccc(C(=O)NCCCN3CCOCC3)cc2)nc1CN1CCc2ccccc21,603 s
5,CCN(CCN(C)C)c1ccc(NS(=O)(=O)c2ccccc2)cc1C(=O)O,582 s
6,Cc1csc(-c2cc(S(=O)(=O)NC3CCCC3)cn2CC(=O)N2CCCC2)n1,848 s
7,O=C(CCC[C@@H]1[C@H]2CCCN3CCC[C@@H](CN1C(=O)c1cc(F)cc(F)c1)[C@@H]23)N1CCOCC1,605 s
8,CCOC(=O)C(C)Sc1nnc(NC(=O)Cc2ccc(OC)cc2)s1 (stereo not given),806 s
9,CCC(=O)NCc1nc2c(n1C)CN(S(=O)(=O)c1cccc(C(F)(F)F)c1)CC2,591 s
10,Cc1ccc(CNC(=O)N2CCC(N3CCN(Cc4ccccc4)C(=O)C3=O)CC2)cc1,768 s
11,Cn1nc(-c2nnc(-c3ccccc3)o2)c2c1CCN(S(=O)(=O)c1ccc3c(c1)CCCC3)C2,1110 s
12,CCC(C)N1C(=O)CN(C2CCCCCC2)C(=O)C1c1ccccc1F (stereo not given),1020 s
13,CCN(CC)C(=O)N1CC(Oc2ccc(-c3noc(COC)n3)cc2)C1,845 s
14,Cc1sc(-c2nc(-c3ccccc3)no2)cc1S(=O)(=O)N1CCN(c2ncccn2)CC1,1210 s
15,O=C(c1ccncn1)N1CC(F)(F)C[C@H]1COc1ccc2c(c1)CCC2,1020 s
16,Fc1ccc(-c2ccc(CNCC3CCCO3)o2)cc1 (stereo not given),649 s
17,Cc1cccc(Sc2nccnc2N2CCC(C(=O)NC3CCCCC3)CC2)c1,1150 s
18,CCN1CCCC1CNC(=O)CC1CCN(S(=O)(=O)c2ccc3c(c2)CCN3C(C)=O)CC1 (stereo not given),597 s
19,O=[N+]([O-])c1ccc2[nH]c3nc4ccccc4nc3c2c1,876 s
20,CN1C(=O)COc2ccc(-c3csc(NC(=O)C4CCCO4)n3)cc21 (stereo not given),762 s
21,CCC1(O)CCOC2(CCN(C(=O)C3CC=CC3)CC2)C1 (stereo not given),686 s
22,O=C(NCCCn1cccc1)c1ccno1,644 s
23,CCc1ccc(NS(=O)(=O)c2cc(-c3[nH]ncc3C(=O)N3CCCC3)oc2C)cc1,758 s
24,CCc1ccc(S(=O)(=O)c2cnc(N3CCCC(C)C3)nc2N)cc1 (stereo not given),1150 s
25,COCc1nc(C2CCN(C(=O)NCC(C)C)C2)no1 (stereo not given),636 s
